BindingDB's records for doi:10.1124/mol.64.6.1283 (Barrow Neurological Institute, 2003)

What follows are molecules tested against Neuronal acetylcholine receptor subunit alpha-4 (Homo sapiens, UniProt P43681).
Neuronal acetylcholine receptor subunit alpha-4, sequence (P43681 whole entry): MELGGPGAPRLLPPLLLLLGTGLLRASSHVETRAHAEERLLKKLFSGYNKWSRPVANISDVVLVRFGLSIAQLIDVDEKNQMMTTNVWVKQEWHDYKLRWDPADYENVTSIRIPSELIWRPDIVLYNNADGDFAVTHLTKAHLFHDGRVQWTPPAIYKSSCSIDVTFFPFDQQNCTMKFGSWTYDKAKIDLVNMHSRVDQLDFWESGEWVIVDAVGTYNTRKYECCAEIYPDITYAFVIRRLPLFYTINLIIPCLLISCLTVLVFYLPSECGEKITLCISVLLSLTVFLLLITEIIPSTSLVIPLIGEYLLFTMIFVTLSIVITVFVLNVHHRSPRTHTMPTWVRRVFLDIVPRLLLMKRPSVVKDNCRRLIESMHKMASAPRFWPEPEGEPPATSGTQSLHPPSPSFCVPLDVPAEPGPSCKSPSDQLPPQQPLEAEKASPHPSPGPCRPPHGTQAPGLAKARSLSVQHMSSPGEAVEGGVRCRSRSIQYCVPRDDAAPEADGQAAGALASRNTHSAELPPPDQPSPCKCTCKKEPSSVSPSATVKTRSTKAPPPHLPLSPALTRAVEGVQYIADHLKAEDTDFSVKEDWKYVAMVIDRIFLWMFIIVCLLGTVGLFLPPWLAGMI
Work on `C[N+](C)(C)CCCCCC[N+](C)(C)C` [Hexamethoniumdibromide] yielded a Ki greater than 10000 nM.
In the case of `C[N+]1(C)CCN(c2ccccc2)CC1` [DMPP], the Ki is reported as 20 nM.
`C[N+](C)(C)CCCCCCCCCC[N+](C)(C)C` [Decamethonium Iodide] showed a Ki of 1300 nM.
In the case of `C[N+](C)(C)CCOC(=O)CCCCCCC(=O)OCC[N+](C)(C)C` [NSC_123990], the Ki is reported as 13 nM.
`O=c1cccc2n1CC1CNCC2C1` (centres undefined) [CAS_485-35-8] was tested, and the Ki was 0.24 nM.
`C=CC[N+]12CCC34c5ccccc5N5C=C6C7CC8C9(CC[N+]8(CC=C)CC7=CCO)c7ccccc7N(C=C(C(CC31)C(=CCO)C2)C54)C69` (centres undefined) [NSC_5311001] gave a Ki greater than 10000 nM.
`CC(=O)OC1CC2CCC3C(CCC4(C)C3CC([N+]3(C)CCCCC3)C4OC(C)=O)C2(C)CC1N1CCCCC1` (centres undefined) [CAS_39764] gave a Ki greater than 10000 nM.
In the case of `CCN1CC2(COC(=O)c3ccccc3-n3c(O)cc(C)c3O)CCC(OC)C34C5CC6C(OC)CC(O)(C5C6OC)C(O)(C(OC)C23)C14` (centres undefined) [CAS_21019-30-7], the Ki is reported as 2800 nM.
`C[N+](C)(C)CCOC(N)=O` [(2-Hydroxyethyl)trimethyl ammonium chloride carbamate] showed a Ki of 150 nM.
`CNC(=O)Oc1ccc2c(c1)C1(C)CCN(C)C1N2C` (centres undefined) [1,3a,8-trimethyl-1H,2H,3H,3aH,8H,8aH-pyrrolo[2,3-b]indol-5-yl N-methylcarbamate] showed a Ki greater than 10000 nM.
With `CC(=O)SCC[N+](C)(C)C` [ATC] the Ki was 170 nM.
`CC(=O)OC1CC2CCC3C(CCC4(C)C3CC([N+]3(C)CCCCC3)C4OC(C)=O)C2(C)CC1[N+]1(C)CCCCC1` (centres undefined) [NSC_27350] showed a Ki greater than 10000 nM.
`C[N+](C)(C)CCOC(=O)CCC(=O)OCC[N+](C)(C)C` [2,2'-[(1,4-dioxobutane-1,4-diyl)bis(oxy)]bis(N,N,N-trimethylethanaminium)] was tested, and the Ki was 2900 nM.
In the case of `COc1cc2c3cc1Oc1cc(ccc1O)C[C@H]1c4c(cc(OC)c(O)c4Oc4ccc(cc4)C[C@@H]3N(C)CC2)CC[N+]1(C)C` [CAS_57-94-3], the Ki is reported as 2000 nM.
